The source of these data is ChEMBL document CHEMBL2203180, “Novel nitric oxide-releasing isochroman-4-one derivatives: Synthesis and evaluation of antihypertensive activity” (Bioorg Med Chem, 2012).

The subject of series [1] is Rattus norvegicus. Briefly: Antihypertensive activity in spontaneously hypertensive rat assessed as reduction of diastolic arterial pressure at 40 mg/kg, po after 6 to 12 hrs. It is filed as functional, Artery. Further details: scale not given: the % may be the effect or the level left.
Series [2] concerns Rattus norvegicus. Briefly: Antihypertensive activity in spontaneously hypertensive rat assessed as reduction of diastolic arterial pressure at 40 mg/kg, po up to 24 hrs. Further details: dose 40 mg/kg. The format is functional, organism-based. The conditions noted are these: Artery.
Series [3] can be described thus: Induction of nitric oxide release in 0.1 mM phosphate buffer solution at pH 7.4 assessed as nitrate/nitrite level after 10 to 150 mins by Griess assay. The format is physicochemical.
Series [4] is described as follows: Induction of nitric oxide release in 0.1 mM phosphate buffer solution at pH 7.4 assessed as nitrate/nitrite level after 60 mins by Griess assay. It is filed as physicochemical. The conditions noted are these: pH 7.4, 1 h.
Series [5] can be described thus: Induction of nitric oxide release in 0.1 mM phosphate buffer solution at pH 7.4 assessed as nitrate/nitrite level after 30 mins by Griess assay. It is filed as physicochemical. To be noted: pH 7.4, 0.5 h.
A short description of series [6]: Induction of nitric oxide release in 0.1 mM phosphate buffer solution at pH 7.4 assessed as nitrate/nitrite level after 100 mins by Griess assay. The format is physicochemical. To be noted: pH 7.4, 100 min. For orientation: The Griess reaction detects nitrite, a stable product of nitric oxide.
The nature of series [7]: Induction of nitric oxide release in 0.1 mM phosphate buffer solution at pH 7.4 assessed as nitrate/nitrite level after 150 mins by Griess assay. To be noted: pH 7.4, 2.5 h. It is filed as physicochemical.
Series [8] can be described thus: Induction of nitric oxide release in 0.1 mM phosphate buffer solution at pH 7.4 assessed as nitrate/nitrite level after 10 mins by Griess assay. It is filed as physicochemical. To be noted: pH 7.4, 10 min.
Series [9] can be described thus: Induction of nitric oxide release in 0.1 mM phosphate buffer solution at pH 7.4 assessed as nitrate/nitrite level after 80 mins by Griess assay. The conditions noted are these: pH 7.4, 80 min. It is filed as physicochemical.
Series [10] in a line: Induction of nitric oxide release in 0.1 mM phosphate buffer solution at pH 7.4 assessed as nitrate/nitrite level after 120 mins by Griess assay. It is filed as physicochemical. To be noted: pH 7.4, 2 h.
Series [11] concerns Rattus norvegicus. Put plainly: Toxicity in spontaneously hypertensive rat assessed as change in heart rate at 80 mg/kg, po up to 24 hrs. It is filed as organism-based. Further details: dose 80 mg/kg, route oral. The conditions noted are these: in vivo.
Series [12] has as its system Rattus norvegicus. Briefly: Antihypertensive activity in spontaneously hypertensive rat assessed as reduction of mean artery pressure at 80 mg/kg, po up to 24 hrs. The format is functional, organism-based. Further details: dose 80 mg/kg.
Series [13] deals with Rattus norvegicus. Put plainly: Antihypertensive activity in spontaneously hypertensive rat assessed as reduction of diastolic arterial pressure at 80 mg/kg, po after 6 to 12 hrs. It is filed as functional, Artery. Further details: scale not given: the % may be the effect or the level left.
Series [14] relates to Rattus norvegicus. Briefly: Antihypertensive activity in spontaneously hypertensive rat assessed as reduction of blood pressure at 80 mg/kg, po up to 24 hrs. The format is functional. Further details: scale not given: the % may be the effect or the level left.

Calls of active or inactive are those of the source. The rule behind the calls is not given here.

Consider `C[C@H](CS)C(=O)N1CCC[C@H]1C(=O)O` [CAPTOPRIL], for which, in the series on Rattus norvegicus [1], the Activity was above 30%. For the same compound, in the series with Rattus norvegicus [2], the outcome was Active.
Take `COc1ccc2c(c1O)COC(C)C2=O` (centres undefined): the Activity result in series [3] is recorded as “Not Active”.
In the case of `COc1cc2c(cc1OCC(=O)OCCCCO[N+](=O)[O-])COC(C)C2=O` (centres undefined), the Activity in [4] stood at 8.72 µmol/L; in [5] it was 7.45 µmol/L; in series [6], 11.67 µmol/L; in [7] it was 14.92 µmol/L; in series [8], 7.42 µmol/L; in series [9], 11.7 µmol/L. Moreover, the Activity in series [10] is 11.69 µmol/L.
Take `COc1ccc2c(c1OCCCO[N+](=O)[O-])COC(C)C2=O` (centres undefined): the Activity in series [4] worked out at 9.23 µmol/L; in [5] it was 7.45 µmol/L; in series [6] it was 9.4 µmol/L; in [7], 9.47 µmol/L; in series [8], 7.42 µmol/L; in [9], 9.27 µmol/L. Besides, the Activity in series [10] was determined as 9.43 µmol/L.
In the case of `COc1cc2c(cc1OCCCO[N+](=O)[O-])COC(C)C2=O` (centres undefined), the Activity in [4] was 18.12 µmol/L; in the series on Rattus norvegicus [11] it was “Non-toxic”; in series [5] it was 17.87 µmol/L; with Rattus norvegicus [13], above 30%; in [6], 18.81 µmol/L; in series [7], 28.58 µmol/L. For the same compound, the Activity in [8] was 17.45 µmol/L; in series [9] it was 18.3 µmol/L; with Rattus norvegicus [14] it was 40%; in series [10] it was 18.95 µmol/L. In addition, the result in the series with Rattus norvegicus [12] and in the series on Rattus norvegicus [2] was Active.
As for `COc1cc2c(cc1OCC(=O)OCCO[N+](=O)[O-])C(=O)C(C)OC2` (centres undefined), the Activity was determined as 10.07 µmol/L in series [4]; 8.81 µmol/L in [5]; 12.09 µmol/L in series [6]; 13.99 µmol/L in [7]; 8.43 µmol/L in series [8]; 11.95 µmol/L in series [9]. For the same compound, the Activity in series [10] turned out to be 12.1 µmol/L.
For the compound `COc1cc2c(cc1OCCCO[N+](=O)[O-])C(=O)C(C)OC2` (centres undefined), the Activity came out at 6.29 µmol/L in [4]; 5.59 µmol/L in series [5]; 6.89 µmol/L in series [6]; 7.04 µmol/L in series [7]; 5.14 µmol/L in series [8]; 6.77 µmol/L in series [9]. Moreover, in series [10], the Activity worked out at 7.01 µmol/L.
With `COc1ccc2c(c1OCC(=O)OCCCO[N+](=O)[O-])COC(C)C2=O` (centres undefined), the Activity in series [4] stood at 2.27 µmol/L; in series [5] it was 1.19 µmol/L; in series [6], 3.95 µmol/L; in series [7], 4.86 µmol/L; in series [8], 0.84 µmol/L; in [9] it was 3.84 µmol/L. For the same compound, the Activity in [10] worked out at 4.01 µmol/L.
On to `COc1cc2c(cc1OCCO[N+](=O)[O-])C(=O)C(C)OC2` (centres undefined), for which the Activity was found to be 6.04 µmol/L in series [4]; 5.84 µmol/L in [5]; 7.56 µmol/L in [6]; 10.06 µmol/L in series [7]; 5.56 µmol/L in series [8]; 6.52 µmol/L in [9]. In addition, the Activity in series [10] worked out at 8.1 µmol/L.
Take `COc1cc2c(cc1OCCCCO[N+](=O)[O-])C(=O)C(C)OC2` (centres undefined): the Activity in series [4] came to 4.87 µmol/L; in series [5] it was 4.83 µmol/L; in series [6], 6.05 µmol/L; in [7], 7.54 µmol/L; in [8], 4.81 µmol/L; in series [9] it was 5.93 µmol/L. In series [10], the Activity worked out at 6.09 µmol/L.
As for `COc1cc2c(cc1OCC(=O)OCCCO[N+](=O)[O-])C(=O)C(C)OC2` (centres undefined), the Activity in [4] was found to be 6.29 µmol/L; in [5], 5.76 µmol/L; in [6], 8.23 µmol/L; in [7], 8.72 µmol/L; in series [8] it was 5.65 µmol/L; in [9] it was 7.77 µmol/L. Moreover, the Activity in series [10] was found to be 8.6 µmol/L.
`CC1OCc2c(ccc(O)c2O)C1=O` (racemic): the outcome in the series on Rattus norvegicus [2] was Active.
With `COc1cc2c(cc1OCCO[N+](=O)[O-])COC(C)C2=O` (centres undefined), the Activity in series [4] came out at 11.24 µmol/L; in series [5], 10.25 µmol/L; in [6], 12.09 µmol/L; in [7] it was 14.72 µmol/L; in series [8], 10.12 µmol/L; in series [9] it was 11.28 µmol/L. The Activity in series [10] turned out to be 12.27 µmol/L.
Turning to `COc1cc2c(cc1OCCCCO[N+](=O)[O-])COC(C)C2=O` (centres undefined), the Activity in series [4] was determined as 7.72 µmol/L; in series [5], 5.17 µmol/L; in series [6], 8.31 µmol/L; in series [7], 12.99 µmol/L; in series [8], 4.81 µmol/L; in series [9] it was 7.85 µmol/L. Besides, in series [10], the Activity is 8.68 µmol/L.
Take `COc1cc2c(cc1O)C(=O)C(C)OC2` (centres undefined): the Activity entry in series [3] is “Not Active”.
With `COc1cc2c(cc1OCC(=O)OCCO[N+](=O)[O-])COC(C)C2=O` (centres undefined), the Activity was 8.64 µmol/L in series [4]; 6.94 µmol/L in series [5]; 11.34 µmol/L in [6]; 16.26 µmol/L in [7]; 6.66 µmol/L in [8]; 11.11 µmol/L in series [9]. For the same compound, in series [10], the Activity was 12.94 µmol/L.
For `COc1cc2c(cc1OCC(=O)OCCCO[N+](=O)[O-])COC(C)C2=O` (centres undefined), the Activity was 11.91 µmol/L in [4]; “Non-toxic” in the series with Rattus norvegicus [11]; 10.41 µmol/L in [5]; above 30% in the series with Rattus norvegicus [13]; 14.61 µmol/L in [6]; 20.62 µmol/L in series [7]. For the same compound, the Activity was 10.37 µmol/L in series [8], 14.7 µmol/L in [9], 40% in the series with Rattus norvegicus [14] and 17.61 µmol/L in series [10]. In addition, the outcome in the series with Rattus norvegicus [12] and in the series on Rattus norvegicus [2] was Active.
Regarding `COc1ccc2c(c1OCCO[N+](=O)[O-])COC(C)C2=O` (centres undefined), the Activity was 4.53 µmol/L in series [4]; “Non-toxic” in the series on Rattus norvegicus [11]; 1.78 µmol/L in series [5]; above 30% with Rattus norvegicus [13]; 10.5 µmol/L in series [6]; 16.26 µmol/L in series [7]. Moreover, the Activity in series [8] came out at 1.51 µmol/L; in series [9], 7.29 µmol/L; in the series with Rattus norvegicus [14], 40%; in series [10], 14.61 µmol/L. Besides, the result in the series with Rattus norvegicus [12] and in the series on Rattus norvegicus [2] was Active.
As for `CC1OCc2cc(O)c(O)cc2C1=O` (racemic), the result with Rattus norvegicus [2] was Active.
With `COc1ccc2c(c1OCC(=O)OCCCCO[N+](=O)[O-])COC(C)C2=O` (centres undefined), the Activity in series [4] was 6.04 µmol/L; in series [5], 5.08 µmol/L; in series [6] it was 6.55 µmol/L; in [7], 8.72 µmol/L; in series [8], 4.05 µmol/L; in series [9], 6.27 µmol/L. In series [10], the Activity was found to be 6.59 µmol/L.
As for `COc1ccc2c(c1OCCCCO[N+](=O)[O-])COC(C)C2=O` (centres undefined), the Activity in [4] came out at 3.02 µmol/L; in [5] it was 2.46 µmol/L; in [6], 4.03 µmol/L; in series [7], 4.02 µmol/L; in series [8] it was 2.19 µmol/L; in series [9], 3.84 µmol/L. Moreover, the Activity in [10] came out at 4.01 µmol/L.
As to `COc1cc2c(cc1OCC(=O)OCCCCO[N+](=O)[O-])C(=O)C(C)OC2` (centres undefined), the Activity was 7.13 µmol/L in series [4]; 6.01 µmol/L in series [5]; 8.9 µmol/L in series [6]; 10.81 µmol/L in [7]; 5.73 µmol/L in series [8]; 8.69 µmol/L in [9]. In addition, the Activity in [10] amounted to 9.02 µmol/L.
Turning to `COc1ccc2c(c1OCC(=O)OCCO[N+](=O)[O-])COC(C)C2=O` (centres undefined), the Activity came out at 13 µmol/L in series [4]; 10.84 µmol/L in series [5]; 13.35 µmol/L in series [6]; 16.68 µmol/L in series [7]; 10.62 µmol/L in [8]; 13.12 µmol/L in series [9]. Further, in [10], the Activity amounted to 13.27 µmol/L. In addition, the result in the series with Rattus norvegicus [2] was Active.
`COc1cc2c(cc1O)COC(C)C2=O` (centres undefined): in series [3], the Activity entry was “Not Active”.
